Source: patent US20260069555A1, “Compositions and Methods for Modulating the Effect of Beta-Blocker Activity in a Subject” (Duke University, priority 2021, published 2026)
Several values for one entry are separate records, joined by “and”; a condition that tells them apart may be missing. Equal entries are not always repeated.

Legend:
β1AR [1] = molecular target: T1, β1AR (Homo sapiens, UniProt P08588); assay: EGFR transactivation (EGFR endocytosis BRET) in HEK293 cells stably expressing β1ARs; format: cell-based
T1 sequence (P08588 whole entry): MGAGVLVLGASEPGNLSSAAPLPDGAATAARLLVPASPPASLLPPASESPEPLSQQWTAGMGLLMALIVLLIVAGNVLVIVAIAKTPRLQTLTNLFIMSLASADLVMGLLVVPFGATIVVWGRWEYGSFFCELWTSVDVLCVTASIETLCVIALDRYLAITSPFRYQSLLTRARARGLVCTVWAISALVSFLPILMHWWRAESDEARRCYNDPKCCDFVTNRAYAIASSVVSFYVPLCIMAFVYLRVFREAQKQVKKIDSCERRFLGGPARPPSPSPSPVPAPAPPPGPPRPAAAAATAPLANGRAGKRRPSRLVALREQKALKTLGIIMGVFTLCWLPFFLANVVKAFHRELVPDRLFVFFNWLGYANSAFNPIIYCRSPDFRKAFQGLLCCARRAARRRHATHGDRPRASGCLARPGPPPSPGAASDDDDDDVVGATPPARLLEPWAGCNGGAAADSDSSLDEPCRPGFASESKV
Procedure: HEK293 cells stably expressing β1ARs were transfected with 250 ng of EGFR-RlucII and 1 μg of rGFP-FYVE constructs. The day following transfection, cells were re-seeded onto poly-L-ornithine coated 96-well plates at ˜25,000 cells per well. […] The cell-permeable substrate coelenterazine 400a (final concentrations of 5 μM) was added 3˜6 min before BRET measurements.

[2] = molecular target: endogenously expressed β2AR (Homo sapiens, UniProt P07550); assay: GloSensor cAMP generation in HEK293 cells; conditions: 30 μM modulator
endogenously expressed β2AR, sequence (P07550 whole entry): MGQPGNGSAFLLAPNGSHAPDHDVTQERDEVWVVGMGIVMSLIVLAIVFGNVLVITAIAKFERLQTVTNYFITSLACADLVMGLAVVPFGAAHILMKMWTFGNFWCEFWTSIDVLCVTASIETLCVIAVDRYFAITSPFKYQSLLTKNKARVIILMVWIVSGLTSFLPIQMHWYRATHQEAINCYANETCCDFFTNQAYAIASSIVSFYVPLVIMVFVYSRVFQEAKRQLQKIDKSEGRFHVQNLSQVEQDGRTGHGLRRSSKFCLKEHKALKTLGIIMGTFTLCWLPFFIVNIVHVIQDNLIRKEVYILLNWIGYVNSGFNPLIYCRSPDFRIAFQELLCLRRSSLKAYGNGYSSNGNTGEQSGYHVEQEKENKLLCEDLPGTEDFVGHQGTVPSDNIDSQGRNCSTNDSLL

β2AR-Gs complexes = β2AR-Gs complexes (Homo sapiens, UniProt P07550); assay: 35S-GTPγS binding to heterotrimeric Gs, β2AR in HDL; conditions: epinephrine 10 μM stimulation
β2AR-Gs complexes, sequence (P07550 whole entry, one chain of several): as the sequence (P07550 whole entry) above

β2AR = β2AR (Homo sapiens, UniProt P07550); assay: 125I-CYP competition radioligand binding at β2AR in HDL particles
β2AR, sequence (P07550 whole entry): as above

β1AR [3] = molecular target: T1, β1AR; assay: ERK activation assay in HEK293 cells expressing β1ARs; format: cell-based; conditions: for dependency of ERK activation on β-arrestin: β-arrestin1/2 knockout vs wild type HEK293 cells
Description: ERK activation assay: HEK293 cells with stable overexpression of FLAG-tagged β1AR or β-arrestin knockout were described previously. Cells were periodically treated with BM Cyclin (Roche) to avoid mycoplasma contamination. […] Cell lysate samples were separated by SDS-PAGE, transferred to PVDF membrane (Bio-Rad) and subjected to immunoblotting with anti-MAPK 1/2 (EMD Millipore) and anti-p44/42 MAPK (Cell Signaling) antibodies. Immunoblots were detected using enhanced chemiluminescence (Thermo Fisher Scientific) and analyzed with ImageJ software. The densitometry values from pERK blots were normalized to respective total ERK blots, and normalized to the maximum response of control group in each experiment.

C57BL/6J wild-type mice = assay: Isoproterenol-induced hemodynamics in mouse heart; format: in vivo; conditions: 3 days
Procedure: Isoproterenol-induced hemodynamic in mouse heart: Eight to twelve-week-old C57BL/6J wild-type mice of both sexes were used. Animal experiments carried out were handled according to approved protocols and animal welfare regulations mandated by the Institutional Animal Care and Use Committee of Duke University Medical Center. […] After treatment, mice were anesthetized with ketamine (100 mg/kg) and xylazine (2.5 mg/kg). After bilateral vagotomy, a 1.4 French (0.46 mm) high fidelity micromanometer catheter (ADInstruments) connected to a pressure transducer (ADInstruments) was inserted into the left ventricle to monitor blood pressure. Basal blood pressure was recorded at steady state after the catheter insertion (2-3 min after insertion). Graded doses of isoproterenol were administered at 45 sec intervals by intravenous injection through a jugular vein. The blood pressure was monitored continuously and recorded at the steady state (35-45 sec after each injection). Data analysis was performed using LabChart 8 software (ADInstruments).

mouse hearts = assay: Ischemia/reperfusion-induced cell apoptosis in mouse heart (TUNEL); format: in vivo
Procedure: Ischemia reperfusion-induced cell apoptosis in mouse heart: Eight to twelve-week-old C57BL/6J wild-type mice or eight to twenty-seven-week-old αMyHC-Cre:Arrblflox/flox/Arrb2flox/flox mice of both sexes were used. Animals were randomly assigned to, and the researchers were blinded for, treatment groups. […] After 3 days of treatment, cardiac ischemia was produced by the ligation of left anterior descending coronary artery. After 45 min, the ligation was released to allow the blood flow to be restored for 45 min. […] The hearts were then embedded in optimum cutting temperature compound (Sakura Finetek) and snap frozen in liquid nitrogen. TUNEL staining on the cryo-sections were performed with in situ cell death detection kit (Sigma-Aldrich) according to the manufacturer's protocol. Sections were then mounted in ProLon Diamond Antifade Mountant with DAPI (Thermo Fisher Scientific). Images were recorded with Zeiss Axio Observer Z1 confocal microscope with 20× objective. In each heart, sections from different groups (from base to apex of the tissue, apart by 0.5 mm) were stained, and the group with maximum TUNEL-positive cells were used for quantification. At lease 9 images from 3 sections were quantified for each heart. The number of TUNEL-positive cells and the total number of nuclei as determined by DAPI staining were counted using ImageJ software.

β1AR [4] = molecular target: T1, β1AR; assay: GloSensor cAMP assay in HEK293 cells transfected with β1ARs; conditions: for activation of cAMP: β-blockers as stimulating ligands
β1AR [5] = molecular target: T1, β1AR; assay: 125I-CYP competition binding at β1AR-HDL particles (Example 2)

COc1cc2ncnc(Nc3cccc(Cl)c3)c2cc1OC [AG1478]
effect on EGF-induced change in BRET ratio (β1AR [1]; 10 μM pretreatment): blocked

CC(C)N(C)S(=O)(=O)c1ccc(Sc2ccc(C(N)=O)cc2)c(C(=O)N[C@@H](CC(N)=O)Cc2ccc(C(C)(C)C)cc2)c1 [A9, (R)—N-(4-amino-1-(4-(tert-butyl)phenyl)-4-oxobutan-2-yl)-2-((4-carbamoylphenyl)thio)-5-(N-isopropyl-N-methylsulfamoyl)benzamide]
modulation of isoproterenol-stimulated cAMP generation [2]: classic NAM
effect on agonist-stimulated activation of Gs / 35S-GTPγS binding to Gs (β2AR-Gs complexes): markedly blocks
PAM activity with agonists including epinephrine (β2AR; affinity shifts, 20 μM analog): absolutely no PAM activity
Log KT (dissociation constant of PAM for receptor binding) (β2AR; carvedilol-bound β2AR): −5.533
cooperativity with carvedilol (β2AR; compared with parent cmpd-6): retains its positive cooperativity with carvedilol

EGF: EGF ligand of the EGFR
ligand-induced EGFR endocytosis (change in BRET ratio) (β1AR [1]; assay validation): robust change in BRET ratio

COc1ccc(Sc2ccc(S(=O)(=O)N(C)C(C)C)cc2C(=O)N[C@@H](CC(N)=O)Cc2ccc(C(C)(C)C)cc2)cc1 [Cmpd-6, (R)—N-(4-amino-1-(4-(tert-butyl)phenyl)-4-oxobutan-2-yl)-5-(N-isopropyl-N-methylsulfamoyl)-2-((4-methoxyphenyl)thio)benzamide]
cooperativity on isoproterenol-stimulated ERK activation (β1AR [3]; 30 μM Cmpd-6): no cooperativity
potentiation of the inhibitory effect of carvedilol on heart rate and dP/dt max (C57BL/6J wild-type mice; Cmpd-6 5 mg/kg/day + carvedilol 1 mg/kg/day): only a modest potentiation
PAM activity on the isoproterenol-induced EGFR transactivation (β1AR [1]; 30 μM Cmpd-6): no PAM activity
TUNEL positive cells in the ischemic zone (mouse hearts; Cmpd-6 5 mg/kg/day alone, wild type mice): ~10%
effect on isoproterenol- or carvedilol-induced cAMP dose response curve (β1AR [4]; 30 μM Cmpd-6): no enhancement
cooperativity with the full agonists epinephrine and norepinephrine (β1AR [5]; 25 μM Cmpd-6): minimal positive cooperativity
enhancement of receptor binding affinity of carvedilol for β1ARs (β1AR [5]; FIG. 10A): 7.9 fold and ~8 fold

C=CCc1ccccc1OCC(O)CNC(C)C (stereo not shown) [alprenolol]
dependency of ERK activation on β-arrestin (β1AR [3]): ~50%
activation of cAMP (β1AR [4]): 20 % of the maximal isoproterenol response

COc1ccccc1OCCNCC(O)COc1cccc2[nH]c3ccccc3c12 (stereo not shown) [carvedilol]
effect on isoproterenol-induced hemodynamics (heart rate, dP/dt max) (C57BL/6J wild-type mice; 1 mg/kg/day, osmotic pump): minimal effect
effect on isoproterenol-induced hemodynamics (heart rate, dP/dt max) (C57BL/6J wild-type mice; higher doses (5, 20 mg/kg/day)): blocked both the heart rate and contractility response
effect on I/R induced apoptosis (mouse hearts; 5 or 20 mg/kg/day, wild type mice): inhibited I/R induced apoptosis
effect on I/R-induced apoptosis (mouse hearts; low or high dose (1 or 20 mg/kg/day), cardiomyocyte-specific β-arrestin1/2 knockout mice): did not reduce

CC(C)(Cc1c[nH]c2ccccc12)NCC(O)COc1ccccc1C#N (stereo not shown) [bucindolol]
dependency of ERK activation on β-arrestin (β1AR [3]): independent of β-arrestin
activation of cAMP (β1AR [4]): 40 % of the maximal isoproterenol response
